Test results: ChEMBL document CHEMBL2163216, “Design of fully synthetic, self-adjuvanting vaccine incorporating the tumor-associated carbohydrate Tn antigen and lipoamino acid-based Toll-like receptor 2 ligand” (J Med Chem, 2012)
Calls of active or inactive are those of the source. The rule behind the calls is not given here. Where a SMILES comes first, the peptide text is derived from it. [ ]: non-standard residue; d: D form. The star is where a group is joined. ξ: configuration not given here. αGalNAc = CC(=O)N[C@@H]1[C@@H](O)[C@@H](O)[C@@H](CO)O[C@@H]1*; ξGly(tetradecyl) = CCCCCCCCCCCCCCC(N)C(=O)O

Legend:
Mus musculus [1] = assay: Immunostimulatory activity in BALB/c (H-2d) mouse assessed as increase in IgG level at 30 ug, sc per week for 5 weeks measured on day 9 after last immunization by ELISA relative to untreated-control; type: functional, organism-based
Mus musculus [2] = assay: Immunostimulatory activity in BALB/c (H-2d) mouse assessed as increase in IgG level at 30 ug, sc per week for 5 weeks coadministered with complete freund's adjuvant measured on day 9 after last immunization by ELISA; type: functional, organism-based
[3] = biological target: Toll-like receptor 2 (Homo sapiens) (UniProt O60603); assay: Activation of human TLR2 expressed in HEK293 cells at 100 to 300 nM after 4 hrs by luciferase reporter gene assay; type: cell-based
Chain of Toll-like receptor 2 (Homo sapiens) (O60603 whole entry): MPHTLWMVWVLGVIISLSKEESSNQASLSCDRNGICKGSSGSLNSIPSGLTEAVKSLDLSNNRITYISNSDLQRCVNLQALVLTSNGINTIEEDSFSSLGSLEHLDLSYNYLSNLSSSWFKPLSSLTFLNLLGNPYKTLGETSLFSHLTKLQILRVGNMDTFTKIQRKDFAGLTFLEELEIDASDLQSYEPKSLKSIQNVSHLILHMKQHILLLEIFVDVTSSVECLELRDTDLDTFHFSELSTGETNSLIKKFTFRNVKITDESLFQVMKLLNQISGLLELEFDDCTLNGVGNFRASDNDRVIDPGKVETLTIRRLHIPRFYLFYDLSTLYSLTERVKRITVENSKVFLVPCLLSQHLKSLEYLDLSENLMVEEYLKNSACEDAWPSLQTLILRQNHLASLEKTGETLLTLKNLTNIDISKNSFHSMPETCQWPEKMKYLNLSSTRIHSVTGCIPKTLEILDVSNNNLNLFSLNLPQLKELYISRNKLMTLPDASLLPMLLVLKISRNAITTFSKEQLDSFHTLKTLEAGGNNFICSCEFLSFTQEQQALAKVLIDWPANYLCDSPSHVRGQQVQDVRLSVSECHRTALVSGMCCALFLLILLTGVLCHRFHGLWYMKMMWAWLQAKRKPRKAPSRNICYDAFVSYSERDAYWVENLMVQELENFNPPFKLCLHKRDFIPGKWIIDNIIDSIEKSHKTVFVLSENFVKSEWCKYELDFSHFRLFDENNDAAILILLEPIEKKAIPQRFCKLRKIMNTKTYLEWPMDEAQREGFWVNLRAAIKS

Compound	Activity (Mus musculus [1])	Activity (Mus musculus [2])	Activity [3]
CCCCCCCCCCCCCCC(NC(=O)C(CCCCCCCCCCCCCC)NC(=O)[C@H](CO)NC(=O)[C@H](CO)NC(=O)[C@H](CCCCN)NC(=O)[C@H](CO[C@H]1O[C@H](CO)[C@H](O)[C@H](O)[C@H]1NC(C)=O)NC(=O)[C@H](CO[C@H]1O[C@H](CO)[C@H](O)[C@H](O)[C@H]1NC(C)=O)NC(=O)[C@H](CO[C@H]1O[C@H](CO)[C@H](O)[C@H](O)[C@H]1NC(C)=O)NC(=O)[C@@H](NC(=O)[C@H](CC(=O)O)NC(=O)[C@H](CCCCN)NC(=O)[C@H](Cc1ccc(O)cc1)NC(=O)[C@@H](NC(=O)[C@@H](NC(=O)[C@H](CCCCN)NC(=O)[C@H](Cc1c[nH]c2ccccc12)NC(=O)[C@@H](NC(=O)[C@H](C)NC(=O)[C@H](Cc1ccccc1)NC(=O)[C@H](CC(C)C)NC(=O)[C@H](CCCCN)NC(=O)[C@H](CC(C)C)NC(=O)[C@H](CCCCN)NC(=O)[C@H](CCC(=O)O)NC(=O)[C@H](Cc1ccccc1)NC(=O)[C@H](CC(N)=O)NC(=O)[C@@H](NC(=O)[C@@H](NC(=O)[C@H](CO)NC(C)=O)[C@@H](C)CC)[C@@H](C)CC)C(C)C)[C@@H](C)CC)[C@@H](C)O)[C@@H](C)O)C(N)=O (stereo partly specified)	inactive	Active	–
CCCCCCCCCCCCCCC(NC(=O)C(CCCCCCCCCCCCCC)NC(=O)[C@H](CO)NC(=O)[C@H](CO)NC(=O)[C@H](CCCCN)NC(=O)[C@H](CO[C@H]1O[C@H](CO)[C@H](O)[C@H](O)[C@H]1NC(C)=O)NC(=O)[C@H](CO[C@H]1O[C@H](CO)[C@H](O)[C@H](O)[C@H]1NC(C)=O)NC(=O)[C@H](CO[C@H]1O[C@H](CO)[C@H](O)[C@H](O)[C@H]1NC(C)=O)NC(=O)[C@H](CCCCNC(=O)[C@H](CC(C)C)NC(=O)[C@H](CCCCN)NC(=O)[C@H](CCC(=O)O)NC(=O)[C@H](Cc1ccccc1)NC(=O)[C@H](CC(N)=O)NC(=O)[C@@H](NC(=O)[C@@H](NC(=O)[C@H](CO)NC(C)=O)[C@@H](C)CC)[C@@H](C)CC)NC(=O)[C@@H](NC(=O)[C@H](CC(=O)O)NC(=O)[C@H](CCCCN)NC(=O)[C@H](Cc1ccc(O)cc1)NC(=O)[C@@H](NC(=O)[C@@H](NC(=O)[C@H](CCCCN)NC(=O)[C@H](Cc1c[nH]c2ccccc12)NC(=O)[C@@H](NC(=O)[C@H](C)NC(=O)[C@H](Cc1ccccc1)NC(=O)[C@H](CC(C)C)NC(=O)[C@H](CCCCN)NC(C)=O)C(C)C)[C@@H](C)CC)[C@@H](C)O)[C@@H](C)O)C(N)=O (stereo partly specified)	inactive	–	–
CCCCCCCCCCCCCCC(NC(=O)C(CCCCCCCCCCCCCC)NC(=O)[C@H](CO)NC(=O)[C@H](CO)NC(=O)[C@H](CCCCN)NC(=O)[C@H](CO[C@H]1O[C@H](CO)[C@H](O)[C@H](O)[C@H]1NC(C)=O)NC(=O)[C@H](CO[C@H]1O[C@H](CO)[C@H](O)[C@H](O)[C@H]1NC(C)=O)NC(=O)[C@H](CO[C@H]1O[C@H](CO)[C@H](O)[C@H](O)[C@H]1NC(C)=O)NC(=O)[C@@H](NC(=O)[C@H](CC(=O)O)NC(=O)[C@H](CCCCN)NC(=O)[C@H](Cc1ccc(O)cc1)NC(=O)[C@@H](NC(=O)[C@@H](NC(=O)[C@H](CCCCN)NC(=O)[C@H](Cc1c[nH]c2ccccc12)NC(=O)[C@@H](NC(=O)[C@H](C)NC(=O)[C@H](Cc1ccccc1)NC(=O)[C@H](CC(C)C)NC(=O)[C@H](CCCCN)NC(C)=O)C(C)C)[C@@H](C)CC)[C@@H](C)O)[C@@H](C)O)C(N)=O (stereo partly specified)	Active	Active	–
CCCCCCCCCCCCCCC(NC(=O)C(CCCCCCCCCCCCCC)NC(=O)[C@H](CO)NC(=O)[C@H](CO)NC(=O)[C@H](CCCCN)NC(=O)[C@H](CO[C@H]1O[C@H](CO)[C@H](O)[C@H](O)[C@H]1NC(C)=O)NC(C)=O)C(N)=O (stereo partly specified) (Ac-S(αGalNAc)KSS[ξGly(tetradecyl)][ξGly(tetradecyl)]-NH2)	–	–	Active
